Values of other authors, collected in patent US20090017243A1, “Conveyor lubricant, passivation of a thermoplastic container to stress cracking and thermoplastic stress crack inhibitor” (Ecolab Inc., priority 1999, published 2009).

Conditions: 96 wt. % solution of glycerol in water

specific gravity: 1.25
SMILES: OCC(O)CO [glycerol]
